# Measurements reported in US20250230193A1, “CYCLIC COMPOUND HAVING SELECTIVE KRAS INHIBITORY EFFECT ON HRAS AND NRAS” (CHUGAI SEIYAKU KABUSHIKI KAISHA, priority 2022, published 2025).
# Assays:
# [1] = target: GDP-bound NRAS wild-type protein (Homo sapiens, UniProt P01111); assay: Binding to NRAS by surface plasmon resonance (SPR), Single Cycle Kinetics; conditions: for NRAS/KRAS (ratio of KD value with respect to NRAS to KD value with respect to KRAS): GDP-bound NRAS wild-type vs GDP-bound KRAS wild-type
# [2] = target: GDP-bound HRAS wild-type protein (Homo sapiens, UniProt P01112); assay: Binding to HRAS by surface plasmon resonance (SPR), Single Cycle Kinetics; conditions: for HRAS/KRAS (ratio of KD value with respect to HRAS to KD value with respect to KRAS): GDP-bound HRAS wild-type vs GDP-bound KRAS wild-type
# Sequence of GDP-bound HRAS wild-type protein (P01112 whole entry): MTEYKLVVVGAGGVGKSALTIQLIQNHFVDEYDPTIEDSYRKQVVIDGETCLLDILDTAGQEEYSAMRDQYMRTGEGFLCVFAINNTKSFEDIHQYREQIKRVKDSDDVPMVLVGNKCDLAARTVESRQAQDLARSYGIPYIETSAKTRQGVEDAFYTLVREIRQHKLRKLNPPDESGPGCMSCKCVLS
# Sequence of GDP-bound NRAS wild-type protein (P01111 whole entry): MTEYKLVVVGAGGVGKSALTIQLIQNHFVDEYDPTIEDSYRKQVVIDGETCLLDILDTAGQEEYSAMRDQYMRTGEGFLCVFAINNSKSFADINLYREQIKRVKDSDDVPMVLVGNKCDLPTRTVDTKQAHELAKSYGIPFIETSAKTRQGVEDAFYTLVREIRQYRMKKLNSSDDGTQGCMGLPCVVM
smiles,measurement,setting,value
CC[C@H](C)[C@@H]1NC(=O)[C@@H]2CCC/C=C/c3ccc(cc3)C[C@@H](C(=O)N(C)CC(=O)N[C@@H](CCc3ccc(Cl)c(Cl)c3)C(=O)N3C[C@H](OC(C)C)C[C@H]3C(=O)NC3(CC(C)(C)C3)C(=O)N(C)[C@@H](C3CCCC3)C(=O)N(C)[C@H](C(=O)N3CCCC3)CC(=O)N2C)N2CC/C=C\C[C@@H](C2=O)N(C)C(=O)CN(C)C1=O [PP2596],NRAS/KRAS (ratio of KD value with respect to GDP-bound NRAS wild-type protein to KD value with respect to KRAS),[1]; class symbols,A (a compound having 10 or more and less than 20 is denoted as A)
same,HRAS/KRAS (ratio of KD value with respect to GDP-bound HRAS wild-type protein to KD value with respect to KRAS),[2]; class symbols,A (a compound having 10 or more and less than 20 is denoted as A)
CCC[C@H]1C(=O)N[C@@H]([C@@H](C)CC)C(=O)N(C)CC(=O)N(C)[C@H]2C/C=C\CCN(C2=O)[C@@H](Cc2ccc(C)cc2)C(=O)N(C)CC(=O)N[C@@H](CCc2ccc(C(F)(F)F)c(Cl)c2)C(=O)N2C[C@H](C)C[C@H]2C(=O)NC2(CC(C)(C)C2)C(=O)N(C)[C@@H](C2CCCC2)C(=O)N(C)[C@H](C(=O)N(C)C)CC(=O)N1C [PP2210],NRAS/KRAS (ratio of KD value with respect to NRAS to KD value with respect to KRAS),[1]; SPR,A (a compound having 10 or more and less than 20 is denoted as A)
same,HRAS/KRAS (ratio of KD value with respect to HRAS to KD value with respect to KRAS),[2]; SPR,B (a compound having 3 or more and less than 10 is denoted as B)
CCO[C@@H]1C[C@H]2C(=O)NC3(CCC3)C(=O)N(C)[C@@H](C3CCCC3)C(=O)N(C)[C@H](C(=O)N(C)C)CC(=O)N(C)[C@@H](CC)C(=O)N[C@@H]([C@@H](C)CC)C(=O)N(C)CC(=O)N(C)[C@H]3CCCCCN(C3=O)[C@@H](Cc3ccc(F)cc3OC)C(=O)N(C)CC(=O)N[C@@H](CCc3cc(F)c(C(F)(F)F)c(F)c3)C(=O)N2C1 [PP0914],NRAS/KRAS (ratio of KD value with respect to NRAS to KD value with respect to KRAS),"[1]; KD ratio, SPR",B (a compound having 3 or more and less than 10 is denoted as B)
same,HRAS/KRAS (ratio of KD value with respect to HRAS to KD value with respect to KRAS),"[2]; KD ratio, SPR",B (a compound having 3 or more and less than 10 is denoted as B)
CCC[C@H]1C(=O)N[C@@H]([C@@H](C)CC)C(=O)N(C)CC(=O)N(C)[C@H]2C/C=C\CCN(C2=O)[C@@H](CC2CCCCC2)C(=O)N(C)CC(=O)N[C@@H](CCc2ccc(C(F)(F)F)c(OC)c2)C(=O)N2C[C@H](OCC)C[C@H]2C(=O)N(C)C2(CCC2)C(=O)N(C)[C@@H](C2CCCC2)C(=O)N(C)[C@H](C(=O)N(C)C)CC(=O)N1C [PP2336],NRAS/KRAS (ratio of KD value with respect to NRAS to KD value with respect to KRAS),[1]; SPR,A (a compound having 10 or more and less than 20 is denoted as A)
same,HRAS/KRAS (ratio of KD value with respect to HRAS to KD value with respect to KRAS),[2]; SPR,A (a compound having 10 or more and less than 20 is denoted as A)
CCC[C@H]1C(=O)N[C@@H]([C@@H](C)CC)C(=O)N(C)CC(=O)N(C)[C@H]2C/C=C\CCN(C2=O)[C@@H](Cc2ccc(C)cc2)C(=O)N(C)CC(=O)N[C@@H](CCc2cc(F)c(C(F)(F)F)c(F)c2)C(=O)N2C[C@H](OCC)C[C@H]2C(=O)NC2(CC(C)(C)C2)C(=O)N(C)[C@@H](CC(C)(C)C)C(=O)N(C)[C@H](C(=O)N(C)C)CC(=O)N1C [PP2706],NRAS/KRAS (ratio of KD value with respect to GDP-bound NRAS wild-type protein to KD value with respect to KRAS),[1]; class symbols,A (a compound having 10 or more and less than 20 is denoted as A)
same,HRAS/KRAS (ratio of KD value with respect to GDP-bound HRAS wild-type protein to KD value with respect to KRAS),[2]; class symbols,B (a compound having 3 or more and less than 10 is denoted as B)
CCO[C@@H]1C[C@H]2C(=O)NC3(CCCC3)C(=O)N(C)[C@@H](C3CCCC3)C(=O)N(C)[C@H](C(=O)N(C)C)CC(=O)N(C)[C@@H](C)C(=O)N[C@@H]([C@@H](C)CC)C(=O)N(C)CC(=O)N(C)[C@H]3CCCCCN(C3=O)[C@@H](Cc3ccc(C(F)(F)F)cc3)C(=O)N(C)CC(=O)N[C@@H](CCc3cc(F)c(C(F)(F)F)c(F)c3)C(=O)N2C1 [PP0475],NRAS/KRAS (ratio of KD value with respect to GDP-bound NRAS wild-type protein to KD value with respect to KRAS),[1]; SPR,B (a compound having 3 or more and less than 10 is denoted as B)
same,HRAS/KRAS (ratio of KD value with respect to GDP-bound HRAS wild-type protein to KD value with respect to KRAS),[2]; SPR,B (a compound having 3 or more and less than 10 is denoted as B)
CC[C@H](C)[C@@H]1NC(=O)[C@H](COC)N(C)C(=O)C[C@@H](C(=O)N(CC)CC)N(C)C(=O)[C@H](C2CCCC2)N(C)C(=O)C2(CC(C)(C)C2)NC(=O)[C@@H]2C[C@H](C)CN2C(=O)[C@H](CCc2ccc(C(F)(F)F)c(Cl)c2)NC(=O)CN(C)C(=O)[C@H](Cc2ccc(C)cc2)N2CC/C=C\C[C@@H](C2=O)N(C)C(=O)CN(C)C1=O [PP2399],NRAS/KRAS (ratio of KD value with respect to NRAS to KD value with respect to KRAS),[1]; SPR,AA (a compound having 20 or more is denoted as AA)
same,HRAS/KRAS (ratio of KD value with respect to HRAS to KD value with respect to KRAS),[2]; SPR,A (a compound having 10 or more and less than 20 is denoted as A)
